Results taken from patent US11401253B2, “16-methyl-oxacyclohexadecan-2-one and 16-methyl-azacyclohexadecan-2-one derivatives as antimicrobial agents” (THE UNIVERSITY OF MONTANA, priority 2017, dated 2022).
Converted amounts (≈) assume the structure as drawn. “And” between values parts separate entries of the source, which are not always exact repeats. Identical values can stand only once.

Legend:
[1] = tested on: Mycobacterium tuberculosis; assay: microbe, parasite or virus in culture; settings: read-out: MIC, MABA
[2] = tested on: Enterococcus faecalis; assay: Antibiotic testing (MIC), Enterococcus faecalis; assay type: cell-based; settings: growth inhibition ≥90%, read-out: minimum inhibitory concentration, Enterococcus faecalis
[3] = tested on: J774; assay: Cytotoxicity (MTS), J774 cells; assay type: cell-based, murine; settings: Mus musculus, 72 hours exposure
[4] = tested on: S. aureus CAIRD116; assay: Antibiotic testing, methicillin-resistant S. aureus CAIRD116; assay type: cell-based; settings: methicillin-resistant strain; for MIC: Staphylococcus aureus, CAIRD116
Description: (§1) Both the methyl ester and the diacetate derivatives of BPL 76 slightly less but still very strong activity against the same four MRSA strains (Table 11). The activities of compounds BPL 76 and BPL 81 were compared to several known antibiotics against three methicillin-resistant strains of S. aureus [FIG. 6, comparative data provided by Hartford Hospital, Center for Anti-Infective Research and Development (CAIRD)].

[5] = tested on: Streptococcus pyogenes; assay: Antibiotic testing (MIC), Streptococcus pyogenes; assay type: cell-based; settings: growth inhibition ≥90%, read-out: minimum inhibitory concentration, Streptococcus pyogenes
[6] = tested on: P. aeruginosa; assay: Antibiotic testing (MIC), gram negative P. aeruginosa; assay type: cell-based; settings: Pseudomonas aeruginosa; read-out: MIC, P. aeruginosa
Description: (§2) None of this collection of compounds were active against Gram-negative bacteria
(§3) Additionally, BPL 76 and derivatives were tested against a panel of gram negative bacteria including K. pneumonia, P. aeruginosa and E. coli (Table 12).

[7] = tested on: E. coli (25922); assay: Antibiotic testing (MIC), gram negative E. coli; assay type: cell-based; settings: Escherichia coli; read-out: MIC, E. coli (25922)
Description: as §2, §3

[8] = tested on: K. pneumoniae (10031); assay: Antibiotic testing (MIC), gram negative K. pneumoniae; assay type: cell-based; settings: Klebsiella pneumoniae; read-out: MIC, K. pneumoniae (10031)
Description: as §2, §3

[9] = tested on: HepG2; assay: Cytotoxicity (MTS), HepG2 cells; assay type: cell-based; settings: Homo sapiens, 72 hours exposure
[10] = tested on: S. aureus CAIRD142; assay: Antibiotic testing, methicillin-resistant S. aureus CAIRD142; assay type: cell-based; settings: methicillin-resistant strain; for MIC: Staphylococcus aureus, CAIRD142
Description: as §1

[11] = tested on: Vero cell; assay: Cytotoxicity (MTS), Vero cells; assay type: cell-based, monkey; settings: Primates, 72 hours exposure
[12] = tested on: Bacillus subtilis; assay: Antibiotic testing (MIC), Bacillus subtilis; assay type: cell-based; settings: growth inhibition ≥90%, read-out: minimum inhibitory concentration, Bacillus subtilis
[13] = tested on: C. albicans; assay: Antibiotic testing (MIC), C. albicans; assay type: cell-based; settings: Candida albicans; growth inhibition ≥90%; read-out: minimum inhibitory concentration, C. albicans
[14] = tested on: S. aureus CAIRD148; assay: Antibiotic testing, methicillin-resistant S. aureus CAIRD148; assay type: cell-based; settings: methicillin-resistant strain; for MIC: Staphylococcus aureus, CAIRD148
Description: as §1

[15] = tested on: B. anthracis; assay: microbe, parasite or virus in culture; assay type: cell-based; settings: Bacillus anthracis, read-out: minimum inhibitory concentration, B. anthracis
[16] = tested on: non-replicating persistence Mycobacterium tuberculosis (NRP-TB); assay: Low oxygen recovery assay (LORA), non-replicating persistence Mtb; assay type: cell-based; settings: for MIC: Mycobacterium tuberculosis, non-replicating persistence, hypoxic conditions, read-out: MIC, LORA
[17] = tested on: Staphylococcus aureus (13709); assay: Antibiotic testing (MIC), S. aureus 13709; assay type: cell-based; settings: growth inhibition ≥90% relative to drug-free controls, read-out: minimum inhibitory concentration, Staphylococcus aureus (13709)
[18] = tested on: S. aureus (NE277); assay: Antibiotic testing, methicillin-resistant S. aureus NE277; assay type: cell-based; settings: for MIC: Staphylococcus aureus, read-out: antibiotic testing data (MIC), S. aureus (NE277)
Description: as §1

[19] = tested on: Candida glabrata; assay: Antibiotic testing (MIC), Candida glabrata; assay type: cell-based; settings: Nakaseomyces glabratus; growth inhibition ≥90%; read-out: minimum inhibitory concentration, Candida glabrata
[20] = molecular target: T1, MMP-3 (Homo sapiens, UniProt P08254); assay: MMP-3 enzyme inhibition assay; assay type: biochemical
T1 construct: purchased BioMol
Description: The two fungi were also co-cultured under controlled conditions. P. fuscum was grown in pure culture in potato dextrose broth (10×400 mL). After 24 h, an agar cube (8 mm^3) impregnated with P. camembertii/clavigerum mycelium was added to each flask and the resulting co-culture was shaken for 6 more days (200 rpm, room temperature). At time of harvest, methanol (50 mL/flask) was added, the mycelia were removed by gravity filtration and the broth was extracted with chloroform (3×2 L). The chloroform was removed in vacuo to yield 663 mg of crude extract. The crude extract was verified to be active in the MMP-3, caspase-1 and caspase-3 enzyme inhibition assays. Enzyme inhibitory activity was determined using specific BioMol enzyme inhibition assay kits for drug discovery as described in Stierle, A; Stierle, D. The Berkeleylactones, Antibiotic Macrolides from Fungal Coculture. J. Nat. Prod. 80, 4, 1150-1160.

[21] = tested on: Mycobacterium tuberculosis; settings: MABA
[22] = tested on: GFP synthesis; assay: Cell-free translation assay with GFP reporter; assay type: biochemical; settings: 50 μM, 37° C., readings for 2 hr
Description: Further assessment of the effect of BPL76 on protein translation was done using a cell-free translation assay. The plasmid pY71-sfGFP^55 (5 ng) was translated in the PUREexpress in vitro protein synthesis system (New England Biolabs). The final concentrations of erythromycin, josamycin and tylosin in the translation reactions were 50 μM. The reactions were incubated at 37° C. and fluorescence readings (excitation: 488 nm, emission, 520 nm) were taken every 20 min for 2 hr.

T1 sequence (P08254 100-477): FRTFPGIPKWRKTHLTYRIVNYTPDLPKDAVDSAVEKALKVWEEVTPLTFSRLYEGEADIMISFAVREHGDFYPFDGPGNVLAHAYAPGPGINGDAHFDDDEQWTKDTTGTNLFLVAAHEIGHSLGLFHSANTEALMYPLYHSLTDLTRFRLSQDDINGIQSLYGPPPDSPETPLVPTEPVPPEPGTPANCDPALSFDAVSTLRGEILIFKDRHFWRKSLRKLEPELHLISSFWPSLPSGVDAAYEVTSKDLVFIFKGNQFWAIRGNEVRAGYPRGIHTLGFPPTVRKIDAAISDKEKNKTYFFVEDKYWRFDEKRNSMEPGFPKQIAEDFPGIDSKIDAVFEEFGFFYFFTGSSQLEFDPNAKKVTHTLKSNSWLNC

Work on `COC(=O)[C@H](O)CS[C@@H]1CC(=O)[C@@H](O)CCCCCCCCC[C@@H](C)OC1=O` [BPL 76-Me ester, methyl (S)-2-hydroxy-3-(((3R,6S,16R)-6-hydroxy-16-methyl-2,5-dioxooxacyclohexadecan-3-yl)thio)propanoate] yielded an MIC [1] of 32 µg/mL (≈ 76.5 µM), an MIC [2] of 3 µg/mL (≈ 7.17 µM) and an IC50 [3] of 38 µg/mL (≈ 90.8 µM). The MIC [4] was 2 µg/mL (≈ 4.78 µM), the MIC [5] was 3 µg/mL (≈ 7.17 µM) and the MIC [6] was greater than 250 µM. For the same compound, the MIC [7] was 125 µM and 52.3 µg/mL, the MIC [8] was 250 µM and 105 µg/mL and the IC50 [9] was 55.6 µg/mL (≈ 133 µM). The MIC [10] was 2 µg/mL (≈ 4.78 µM), the IC50 [11] was 74 µg/mL (≈ 177 µM) and the MIC [12] was 3 µg/mL (≈ 7.17 µM). The MIC [13] was 13 µg/mL (≈ 31.1 µM), the MIC [14] was 2 µg/mL (≈ 4.78 µM) and the MIC [15] was 1 µg/mL (≈ 2.39 µM). It also gave an MIC [16] of 19 µg/mL (≈ 45.4 µM), an MIC [17] of 1 µg/mL (≈ 2.39 µM) and an MIC [18] of 2 µg/mL (≈ 4.78 µM). For the same compound, the MIC [19] was 7 µg/mL (≈ 16.7 µM).
Work on `COC(=O)[C@@H](CS[C@@H]1CC(=O)[C@@H](OC(C)=O)CCCCCCCCC[C@@H](C)OC1=O)OC(C)=O` [BPL 76-diacetate, methyl (S)-2-acetoxy-3-(((3R,6S,16R)-6-acetoxy-16-methyl-2,5-dioxooxacyclohexadecan-3-yl)thio)propanoate] yielded an MIC [2] of 15 µg/mL (≈ 29.8 µM), an MIC [4] of 4 µg/mL (≈ 7.96 µM) and an MIC [5] of 15 µg/mL (≈ 29.8 µM). The MIC [6] was greater than 125 µM, the MIC [7] was greater than 125 µM and the MIC [8] was greater than 125 µM. For the same compound, the MIC [10] was 7 µg/mL (≈ 13.9 µM), the MIC [12] was 7 µg/mL (≈ 13.9 µM) and the MIC [13] was greater than 125 µg/mL. The MIC [14] was 4 µg/mL (≈ 7.96 µM), the MIC [15] was 4 µg/mL (≈ 7.96 µM) and the MIC [17] was 2 µg/mL (≈ 3.98 µM). For the same compound, the MIC [18] was 4 µg/mL (≈ 7.96 µM) and the MIC [19] was greater than 125 µg/mL.
`C[C@@H]1CCCCCCCCC[C@H](OC(=O)CCC(=O)O)[C@H](O)/C=C/C(=O)O1` [BPL 84, 4-(((5R,6S,16R,E)-5-hydroxy-16-methyl-2-oxooxacyclohexadec-3-en-6-yl)oxy)-4-oxobutanoic acid] was tested, and the MIC [1] was greater than 100 µg/mL, the MMP-3 inhibition [20] was “weaker inhibitors” and the IC50 [3] was greater than 100 µg/mL. For the same compound, the MIC [4] was greater than 90 µg/mL, the “antibiotic testing data (MIC), S. aureus CAIRD116” value [4] was greater than 250 µM and the MIC [5] was greater than 90 µg/mL. For the same compound, the MIC [6] was greater than 250 µM, the MIC [7] was greater than 250 µM and the MIC [8] was greater than 250 µM. The IC50 [9] was greater than 100 µg/mL, the MIC [10] was greater than 90 µg/mL and the “antibiotic testing data (MIC), S. aureus CAIRD142” value [10] was greater than 250 µM. For the same compound, the IC50 [11] was greater than 100 µg/mL, the MIC [12] was greater than 90 µg/mL and the “activity against replicating Mtb (in words)” value [21] was “not active”. For the same compound, the MIC [13] was greater than 90 µg/mL, the MIC [14] was greater than 90 µg/mL and the “antibiotic testing data (MIC), S. aureus CAIRD148” value [14] was greater than 250 µM. For the same compound, the MIC [15] was greater than 90 µg/mL, the “activity against non-replicating Mtb (in words)” value ([16]; LORA) was “not active” and the MIC [16] was greater than 100 µg/mL. For the same compound, the MIC [17] was 45 µg/mL (≈ 117 µM), the MIC [18] was greater than 90 µg/mL and the “antibiotic testing data (MIC), S. aureus (NE277)” value ([18]; methicillin-resistant strain) was greater than 250 µM. It also gave an MIC [19] greater than 90 µg/mL.
In the case of `C[C@@H]1CCCCCCCCC[C@H](OC(=O)CCC(=O)O)C(=O)C[C@@H](SC[C@@H](O)C(=O)O)C(=O)O1` [BPL 88, 4-(((3R,6S,16R)-3-(((S)-2-carboxy-2-hydroxyethyl)thio)-16-methyl-2,5-dioxooxacyclohexadecan-6-yl)oxy)-4-oxobutanoic acid], the MIC [1] was greater than 100 µg/mL, the MMP-3 inhibition [20] was “weaker inhibitors” and the MIC [2] was 31 µg/mL (≈ 61.4 µM). The IC50 [3] was 42.5 µg/mL (≈ 84.3 µM), the MIC [4] was 15 µg/mL (≈ 29.7 µM) and the MIC [5] was 119 µg/mL (≈ 236 µM). For the same compound, the MIC [6] was greater than 250 µM, the MIC [7] was greater than 250 µM and the MIC [8] was greater than 250 µM. The IC50 [9] was greater than 100 µg/mL, the MIC [10] was 15 µg/mL (≈ 29.7 µM) and the IC50 [11] was greater than 100 µg/mL. It also gave an MIC [12] of 31 µg/mL (≈ 61.4 µM), an MIC [13] greater than 119 µg/mL and an MIC [14] of 8 µg/mL (≈ 15.9 µM). The MIC [15] was 8 µg/mL (≈ 15.9 µM), the MIC [16] was 46 µg/mL (≈ 91.2 µM) and the MIC [17] was 4 µg/mL (≈ 7.93 µM). The MIC [18] was 8 µg/mL (≈ 15.9 µM) and the MIC [19] was 31 µg/mL (≈ 61.4 µM).
With `CC[C@H]1OC(=O)[C@H](C)[C@@H](O[C@H]2C[C@@](C)(OC)[C@@H](O)[C@H](C)O2)[C@H](C)[C@@H](O[C@@H]2O[C@H](C)C[C@H](N(C)C)[C@H]2O)[C@](C)(O)C[C@@H](C)C(=O)[C@H](C)[C@@H](O)[C@]1(C)O` [erythromycin] the “inhibition of GFP synthesis and corresponding fluorescence” value [22] was “effectively inhibited”.
`CO[C@@H]1[C@@H](O[C@@H]2O[C@H](C)[C@@H](O[C@H]3C[C@@](C)(O)[C@@H](OC(=O)CC(C)C)[C@H](C)O3)[C@H](N(C)C)[C@H]2O)[C@@H](CC=O)C[C@@H](C)[C@@H](O)/C=C/C=C/C[C@@H](C)OC(=O)C[C@H]1OC(C)=O` [josamycin] was tested, and the “inhibition of GFP synthesis and corresponding fluorescence” value [22] was “effectively inhibited”.
With `CC[C@H]1OC(=O)C[C@@H](O)[C@H](C)[C@@H](O[C@@H]2O[C@H](C)[C@@H](O[C@H]3C[C@@](C)(O)[C@@H](O)[C@H](C)O3)[C@H](N(C)C)[C@H]2O)[C@@H](CC=O)C[C@@H](C)C(=O)/C=C/C(C)=C/[C@@H]1CO[C@@H]1O[C@H](C)[C@@H](O)[C@@H](OC)[C@H]1OC` [tylosin] the “inhibition of GFP synthesis and corresponding fluorescence” value [22] was “effectively inhibited”.
